Data from PubChem BioAssay AID2060510 (Molecular Pharmacology Branch, DTP, NCI, 2025).

System: 439559-082-T-J2-PDC spheroids viability
Test: Anticancer human tumor 439559-082-T-J2-PDC patient-derived colon adenocarcinoma cell line growth inhibition [GQUAD]
Settings: for IC50: curve of first compound; for viability, T/C: stronger effect = lower value
Method in brief: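 Multi-cell-type spheroids of tumor cells with HUVEC and mesenchymal stem cells, treated with drug combinations. Concentrations descend in half-log steps from near clinical Cmax, or from 10 microM where Cmax is unknown; viability read-out.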

[1] = second compound 0.0316 µM, first compound 0.0316 µM
[2] = second compound 0.0316 µM, first compound 0.316 µM
[3] = second compound 0.1 µM, first compound 0.0316 µM
[4] = second compound 0.1 µM, first compound 0.316 µM
[5] = second compound 0.316 µM, first compound 0.0316 µM
[6] = second compound 0.316 µM, first compound 0.316 µM
[7] = second compound 1 µM, first compound 0.0316 µM
[8] = second compound 1 µM, first compound 0.316 µM
[9] = second compound 3.16 µM, first compound 0.0316 µM
[10] = second compound 3.16 µM, first compound 0.316 µM
[11] = second compound 10 µM, first compound 0.0316 µM
[12] = second compound 10 µM, first compound 0.316 µM
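Further: spheroids exposed to the agents for 7 days before readout.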
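Wherever viability, T/C is given: percent of luminescence signal in DMSO vehicle wells taken as 100% viability.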

Cc1[nH]c2ccccc2c1CCNCc1ccc(/C=C/C(=O)NO)cc1 + CN(C)c1ccc(Nc2c3ccc(NC(=O)CCN4CCCC4)cc3nc3cc(NC(=O)CCN4CCCC4)ccc23)cc1
IC50 (second compound 0.0316 µM): > 316 nM | IC50 (second compound 0.1 µM): > 316 nM | IC50 (second compound 0.316 µM): > 316 nM | IC50 (second compound 1 µM): > 316 nM | IC50 (second compound 3.16 µM): > 316 nM | IC50 (second compound 10 µM): > 316 nM | viability, T/C (second compound 0.0316 µM, first compound 0.000999 µM): 105% | viability, T/C (second compound 0.0316 µM, first compound 0.00316 µM): 86.9% | viability, T/C (second compound 0.0316 µM, first compound 0.00999 µM): 91.8% | viability, T/C [1]: 87.3% | viability, T/C (second compound 0.0316 µM, first compound 0.0999 µM): 84.7% | viability, T/C [2]: 63.6% | viability, T/C (second compound 0.1 µM, first compound 0.000999 µM): 110% | viability, T/C (second compound 0.1 µM, first compound 0.00316 µM): 102% | viability, T/C (second compound 0.1 µM, first compound 0.00999 µM): 101% | viability, T/C [3]: 83.9% | viability, T/C (second compound 0.1 µM, first compound 0.0999 µM): 83.8% | viability, T/C [4]: 60.9% | viability, T/C (second compound 0.316 µM, first compound 0.000999 µM): 93.6% | viability, T/C (second compound 0.316 µM, first compound 0.00316 µM): 91.3% | viability, T/C (second compound 0.316 µM, first compound 0.00999 µM): 85.5% | viability, T/C [5]: 76.4% | viability, T/C (second compound 0.316 µM, first compound 0.0999 µM): 80% | viability, T/C [6]: 62.3% | viability, T/C (second compound 1 µM, first compound 0.000999 µM): 99.1% | viability, T/C (second compound 1 µM, first compound 0.00316 µM): 99.1% | viability, T/C (second compound 1 µM, first compound 0.00999 µM): 99.9% | viability, T/C [7]: 86.9% | viability, T/C (second compound 1 µM, first compound 0.0999 µM): 78.5% | viability, T/C [8]: 64.1% | viability, T/C (second compound 3.16 µM, first compound 0.000999 µM): 93.8% | viability, T/C (second compound 3.16 µM, first compound 0.00316 µM): 89.4% | viability, T/C (second compound 3.16 µM, first compound 0.00999 µM): 88.5% | viability, T/C [9]: 79.2% | viability, T/C (second compound 3.16 µM, first compound 0.0999 µM): 75.3% | viability, T/C [10]: 60.8% | viability, T/C (second compound 10 µM, first compound 0.000999 µM): 96.1% | viability, T/C (second compound 10 µM, first compound 0.00316 µM): 95.7% | viability, T/C (second compound 10 µM, first compound 0.00999 µM): 97.9% | viability, T/C [11]: 84.7% | viability, T/C (second compound 10 µM, first compound 0.0999 µM): 83% | viability, T/C [12]: 68.9%

O=C(NO)c1cnc(N2CCN(S(=O)(=O)c3ccc4ccccc4c3)CC2)nc1 + CN(C)c1ccc(Nc2c3ccc(NC(=O)CCN4CCCC4)cc3nc3cc(NC(=O)CCN4CCCC4)ccc23)cc1
IC50 (second compound 0.0316 µM): 445 nM | IC50 (second compound 0.1 µM): 393 nM | IC50 (second compound 0.316 µM): 334 nM | IC50 (second compound 1 µM): 406 nM | IC50 (second compound 3.16 µM): 402 nM | IC50 (second compound 10 µM): 365 nM | viability, T/C [1]: 96.5% | viability, T/C (second compound 0.0316 µM, first compound 0.1 µM): 83.4% | viability, T/C [2]: 69.9% | viability, T/C (second compound 0.0316 µM, first compound 1 µM): 2.76% | viability, T/C (second compound 0.0316 µM, first compound 3.16 µM): 0.18% | viability, T/C (second compound 0.0316 µM, first compound 10 µM): 0.23% | viability, T/C [3]: 99.8% | viability, T/C (second compound 0.1 µM, first compound 0.1 µM): 85.2% | viability, T/C [4]: 61.5% | viability, T/C (second compound 0.1 µM, first compound 1 µM): 5.02% | viability, T/C (second compound 0.1 µM, first compound 3.16 µM): 0.16% | viability, T/C (second compound 0.1 µM, first compound 10 µM): 0.17% | viability, T/C [5]: 98.3% | viability, T/C (second compound 0.316 µM, first compound 0.1 µM): 82% | viability, T/C [6]: 54.6% | viability, T/C (second compound 0.316 µM, first compound 1 µM): 3.28% | viability, T/C (second compound 0.316 µM, first compound 3.16 µM): 0.16% | viability, T/C (second compound 0.316 µM, first compound 10 µM): 0.13% | viability, T/C [7]: 83.1% | viability, T/C (second compound 1 µM, first compound 0.1 µM): 87.2% | viability, T/C [8]: 62.5% | viability, T/C (second compound 1 µM, first compound 1 µM): 4.71% | viability, T/C (second compound 1 µM, first compound 3.16 µM): 0.12% | viability, T/C (second compound 1 µM, first compound 10 µM): 0.19% | viability, T/C [9]: 88.2% | viability, T/C (second compound 3.16 µM, first compound 0.1 µM): 85.2% | viability, T/C [10]: 62.5% | viability, T/C (second compound 3.16 µM, first compound 1 µM): 2.43% | viability, T/C (second compound 3.16 µM, first compound 3.16 µM): 0.12% | viability, T/C (second compound 3.16 µM, first compound 10 µM): 0.2% | viability, T/C [11]: 98.5% | viability, T/C (second compound 10 µM, first compound 0.1 µM): 80.9% | viability, T/C [12]: 58.5% | viability, T/C (second compound 10 µM, first compound 1 µM): 5.85% | viability, T/C (second compound 10 µM, first compound 3.16 µM): 0.23% | viability, T/C (second compound 10 µM, first compound 10 µM): 0.19%
